Like-named read-outs stand apart in the source and are kept apart here.
Assays:
[1] = biological target: ORL1 (NOP) receptor (Homo sapiens, UniProt P41146); assay: in vitro pharmacology at ORL1 receptor; assay type: biochemical
[2] = biological target: cholinergic muscarinic receptor 3 (Homo sapiens, UniProt P20309); assay: in vitro antagonistic activity at muscarinic receptor 3; assay type: biochemical
[3] = biological target: T1, adrenergic receptor Alpha 2B (Homo sapiens, UniProt P18089); assay: in vitro antagonistic activity at adrenergic Alpha 2B; assay type: biochemical
T1 sequence (P18089 1-450): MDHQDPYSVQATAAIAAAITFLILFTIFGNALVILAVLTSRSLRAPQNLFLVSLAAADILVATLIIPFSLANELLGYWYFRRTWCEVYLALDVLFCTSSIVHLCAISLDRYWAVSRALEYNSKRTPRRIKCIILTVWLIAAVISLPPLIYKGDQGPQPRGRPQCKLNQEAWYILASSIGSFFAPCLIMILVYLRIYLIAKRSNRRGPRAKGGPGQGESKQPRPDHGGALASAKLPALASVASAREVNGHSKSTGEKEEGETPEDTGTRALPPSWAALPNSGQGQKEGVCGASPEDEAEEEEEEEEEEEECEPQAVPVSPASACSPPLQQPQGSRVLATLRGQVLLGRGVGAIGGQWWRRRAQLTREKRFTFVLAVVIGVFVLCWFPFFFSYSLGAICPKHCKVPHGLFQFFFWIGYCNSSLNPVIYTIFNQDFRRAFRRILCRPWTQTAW

[4] = biological target: T2, adrenergic receptor Alpha 2C (Homo sapiens, UniProt P18825); assay: in vitro antagonistic activity at adrenergic Alpha 2C; assay type: biochemical
T2 sequence (P18825 1-462): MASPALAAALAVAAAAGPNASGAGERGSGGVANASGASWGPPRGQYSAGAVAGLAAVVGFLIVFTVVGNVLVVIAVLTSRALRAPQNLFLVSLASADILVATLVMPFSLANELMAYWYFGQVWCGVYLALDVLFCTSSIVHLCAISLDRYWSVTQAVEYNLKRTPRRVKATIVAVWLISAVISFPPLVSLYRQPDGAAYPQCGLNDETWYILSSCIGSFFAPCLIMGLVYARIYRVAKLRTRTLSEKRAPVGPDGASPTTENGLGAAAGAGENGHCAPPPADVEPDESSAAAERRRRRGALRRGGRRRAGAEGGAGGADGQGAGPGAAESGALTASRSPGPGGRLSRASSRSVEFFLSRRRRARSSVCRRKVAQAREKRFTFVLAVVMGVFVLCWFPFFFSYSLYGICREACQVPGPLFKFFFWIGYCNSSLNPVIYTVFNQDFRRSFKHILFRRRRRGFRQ

[5] = biological target: T3, dopamine D4 receptor (Homo sapiens, UniProt P21917); assay: in vitro antagonistic activity at dopamine D4; assay type: biochemical
T3 sequence (P21917 1-419): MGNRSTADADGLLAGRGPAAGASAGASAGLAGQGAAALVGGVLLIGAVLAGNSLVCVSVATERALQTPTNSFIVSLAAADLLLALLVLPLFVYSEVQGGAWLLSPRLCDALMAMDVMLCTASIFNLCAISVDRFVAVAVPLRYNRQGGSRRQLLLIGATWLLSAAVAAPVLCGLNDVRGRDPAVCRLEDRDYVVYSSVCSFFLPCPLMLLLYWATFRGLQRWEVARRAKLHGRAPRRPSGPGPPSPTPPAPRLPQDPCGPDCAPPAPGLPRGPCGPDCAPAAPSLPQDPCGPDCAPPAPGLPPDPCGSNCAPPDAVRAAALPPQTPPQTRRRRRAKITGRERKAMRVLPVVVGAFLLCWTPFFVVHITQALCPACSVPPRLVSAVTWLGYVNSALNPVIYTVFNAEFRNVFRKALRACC

[6] = biological target: T4, cholinergic muscarinic receptor 4 (Homo sapiens, UniProt P08173); assay: in vitro antagonistic activity at muscarinic receptor 4; assay type: biochemical
T4 sequence (P08173 1-479): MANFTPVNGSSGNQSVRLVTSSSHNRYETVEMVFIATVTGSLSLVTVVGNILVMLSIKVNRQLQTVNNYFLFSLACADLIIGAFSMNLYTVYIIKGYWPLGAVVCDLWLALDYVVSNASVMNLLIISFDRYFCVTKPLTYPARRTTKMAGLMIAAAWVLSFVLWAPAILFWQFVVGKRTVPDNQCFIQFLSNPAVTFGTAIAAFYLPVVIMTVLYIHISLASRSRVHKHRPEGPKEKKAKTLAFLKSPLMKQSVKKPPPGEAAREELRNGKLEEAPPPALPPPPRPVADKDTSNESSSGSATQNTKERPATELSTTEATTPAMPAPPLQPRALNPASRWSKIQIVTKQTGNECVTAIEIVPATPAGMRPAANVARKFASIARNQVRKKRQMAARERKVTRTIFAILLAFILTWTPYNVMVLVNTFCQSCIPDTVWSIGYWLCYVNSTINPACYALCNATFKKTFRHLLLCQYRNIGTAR

[7] = tested on: Sigma opiate sites; assay: in vitro affinity at sigma opiate sites; assay type: binding
[8] = biological target: Mu (MOP) receptor (Homo sapiens, UniProt P35372); assay type: biochemical
[9] = biological target: T5, cholinergic muscarinic receptor 5 (Homo sapiens, UniProt P08912); assay: in vitro antagonistic activity at muscarinic receptor 5; assay type: biochemical
T5 sequence (P08912 1-532): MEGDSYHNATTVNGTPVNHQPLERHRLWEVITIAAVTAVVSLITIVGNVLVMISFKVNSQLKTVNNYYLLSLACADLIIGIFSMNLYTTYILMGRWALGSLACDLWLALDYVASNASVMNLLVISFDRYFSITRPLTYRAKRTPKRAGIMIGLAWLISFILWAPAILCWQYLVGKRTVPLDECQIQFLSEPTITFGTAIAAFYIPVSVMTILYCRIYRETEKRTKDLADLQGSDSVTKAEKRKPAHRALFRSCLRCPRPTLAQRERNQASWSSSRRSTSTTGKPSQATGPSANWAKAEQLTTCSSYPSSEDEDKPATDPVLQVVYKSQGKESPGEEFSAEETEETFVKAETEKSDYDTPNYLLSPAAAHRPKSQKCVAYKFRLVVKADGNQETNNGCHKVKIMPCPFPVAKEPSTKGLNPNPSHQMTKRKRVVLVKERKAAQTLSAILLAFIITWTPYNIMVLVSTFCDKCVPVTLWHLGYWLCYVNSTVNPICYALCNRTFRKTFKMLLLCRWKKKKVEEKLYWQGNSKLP

[10] = biological target: serotonin receptor 1B (Homo sapiens, UniProt P28222); assay: in vitro antagonistic activity at serotonin receptor 1B; assay type: biochemical
[11] = biological target: Kappa (KOP) receptor (Homo sapiens, UniProt P41145); assay type: biochemical
[12] = biological target: T6, serotonin receptor 1A (Homo sapiens, UniProt P08908); assay: in vitro antagonistic activity at serotonin receptor 1A; assay type: biochemical
T6 sequence (P08908 1-422): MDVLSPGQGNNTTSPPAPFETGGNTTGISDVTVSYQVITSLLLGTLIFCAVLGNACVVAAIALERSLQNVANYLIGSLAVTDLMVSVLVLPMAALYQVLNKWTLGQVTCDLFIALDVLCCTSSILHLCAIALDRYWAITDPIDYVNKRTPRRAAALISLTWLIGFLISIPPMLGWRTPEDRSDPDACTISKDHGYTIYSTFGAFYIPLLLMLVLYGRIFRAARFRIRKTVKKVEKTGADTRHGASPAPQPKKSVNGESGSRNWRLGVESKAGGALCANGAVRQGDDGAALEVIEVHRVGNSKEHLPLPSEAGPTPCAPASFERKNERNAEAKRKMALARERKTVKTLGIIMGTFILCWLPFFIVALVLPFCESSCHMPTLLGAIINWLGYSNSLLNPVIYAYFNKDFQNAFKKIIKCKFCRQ

[13] = biological target: histamine H1 receptor (Homo sapiens, UniProt P35367); assay: in vitro antagonistic activity at histamine H1; assay type: biochemical
[14] = biological target: T7, adrenergic receptor Alpha 1B (Homo sapiens, UniProt P35368); assay: in vitro antagonistic activity at adrenergic Alpha 1B; assay type: biochemical
T7 sequence (P35368 1-520): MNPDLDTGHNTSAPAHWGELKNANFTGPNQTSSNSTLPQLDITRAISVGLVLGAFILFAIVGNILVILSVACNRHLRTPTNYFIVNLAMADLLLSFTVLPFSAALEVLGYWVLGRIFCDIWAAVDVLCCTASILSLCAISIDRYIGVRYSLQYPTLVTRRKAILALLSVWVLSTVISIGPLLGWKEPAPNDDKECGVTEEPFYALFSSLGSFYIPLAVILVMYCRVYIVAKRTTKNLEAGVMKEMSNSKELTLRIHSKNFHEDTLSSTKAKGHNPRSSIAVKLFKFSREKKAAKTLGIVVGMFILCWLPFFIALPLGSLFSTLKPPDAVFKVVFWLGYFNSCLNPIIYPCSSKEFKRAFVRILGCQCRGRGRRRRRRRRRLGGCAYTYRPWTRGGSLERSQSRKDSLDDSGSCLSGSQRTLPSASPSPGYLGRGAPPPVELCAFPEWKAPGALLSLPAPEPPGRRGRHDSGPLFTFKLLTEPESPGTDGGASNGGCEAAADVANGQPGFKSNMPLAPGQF

[15] = biological target: T8, cholinergic muscarinic receptor 1 (Homo sapiens, UniProt P11229); assay: in vitro antagonistic activity at muscarinic receptor 1; assay type: biochemical
T8 sequence (P11229 1-460): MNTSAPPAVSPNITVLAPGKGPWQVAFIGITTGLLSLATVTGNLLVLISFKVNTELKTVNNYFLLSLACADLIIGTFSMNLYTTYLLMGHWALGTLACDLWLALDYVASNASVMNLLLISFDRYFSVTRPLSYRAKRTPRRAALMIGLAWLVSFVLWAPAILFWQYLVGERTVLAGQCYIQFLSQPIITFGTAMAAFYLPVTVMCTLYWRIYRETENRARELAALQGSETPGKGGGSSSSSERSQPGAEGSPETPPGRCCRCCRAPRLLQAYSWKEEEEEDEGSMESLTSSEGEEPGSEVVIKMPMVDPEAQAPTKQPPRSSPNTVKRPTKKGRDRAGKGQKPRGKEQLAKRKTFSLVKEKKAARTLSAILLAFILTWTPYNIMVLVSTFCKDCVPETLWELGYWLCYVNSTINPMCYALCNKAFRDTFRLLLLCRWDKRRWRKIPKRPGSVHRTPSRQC

Sequence of ORL1 (NOP) receptor (P41146 whole entry): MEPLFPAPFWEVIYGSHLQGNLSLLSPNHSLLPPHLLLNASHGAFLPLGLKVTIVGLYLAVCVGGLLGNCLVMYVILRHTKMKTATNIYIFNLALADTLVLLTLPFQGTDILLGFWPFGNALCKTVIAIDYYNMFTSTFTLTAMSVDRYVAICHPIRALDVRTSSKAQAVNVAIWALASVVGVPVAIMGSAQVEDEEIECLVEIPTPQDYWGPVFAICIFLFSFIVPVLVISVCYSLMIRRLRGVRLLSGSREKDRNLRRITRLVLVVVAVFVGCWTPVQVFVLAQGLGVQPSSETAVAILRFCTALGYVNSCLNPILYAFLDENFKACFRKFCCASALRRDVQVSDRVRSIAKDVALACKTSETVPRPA
Sequence of Kappa (KOP) receptor (P41145 whole entry): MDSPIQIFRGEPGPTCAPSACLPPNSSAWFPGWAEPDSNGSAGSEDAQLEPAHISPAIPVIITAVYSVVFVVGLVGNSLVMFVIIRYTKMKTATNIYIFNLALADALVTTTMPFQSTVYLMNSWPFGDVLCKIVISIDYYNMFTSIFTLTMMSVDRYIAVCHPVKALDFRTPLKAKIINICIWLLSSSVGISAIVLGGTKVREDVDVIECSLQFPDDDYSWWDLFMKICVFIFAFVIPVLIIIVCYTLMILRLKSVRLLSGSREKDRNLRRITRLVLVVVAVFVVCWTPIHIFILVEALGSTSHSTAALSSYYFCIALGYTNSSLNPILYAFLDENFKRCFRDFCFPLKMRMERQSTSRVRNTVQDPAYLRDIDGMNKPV
Sequence of histamine H1 receptor (P35367 whole entry, species assumed): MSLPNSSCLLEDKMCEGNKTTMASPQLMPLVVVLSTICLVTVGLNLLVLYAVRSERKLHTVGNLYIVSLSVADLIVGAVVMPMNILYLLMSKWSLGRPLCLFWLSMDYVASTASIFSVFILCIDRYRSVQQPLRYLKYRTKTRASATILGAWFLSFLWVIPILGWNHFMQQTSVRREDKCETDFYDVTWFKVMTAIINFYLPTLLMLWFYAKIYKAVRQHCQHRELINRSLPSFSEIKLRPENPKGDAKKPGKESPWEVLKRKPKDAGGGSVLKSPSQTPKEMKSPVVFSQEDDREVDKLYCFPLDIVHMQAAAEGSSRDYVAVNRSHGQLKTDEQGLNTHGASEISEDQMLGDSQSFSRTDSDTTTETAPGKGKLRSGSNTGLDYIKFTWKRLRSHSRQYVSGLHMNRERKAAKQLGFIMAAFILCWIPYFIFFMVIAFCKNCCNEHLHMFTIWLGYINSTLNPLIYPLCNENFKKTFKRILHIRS
Sequence of serotonin receptor 1B (P28222 whole entry): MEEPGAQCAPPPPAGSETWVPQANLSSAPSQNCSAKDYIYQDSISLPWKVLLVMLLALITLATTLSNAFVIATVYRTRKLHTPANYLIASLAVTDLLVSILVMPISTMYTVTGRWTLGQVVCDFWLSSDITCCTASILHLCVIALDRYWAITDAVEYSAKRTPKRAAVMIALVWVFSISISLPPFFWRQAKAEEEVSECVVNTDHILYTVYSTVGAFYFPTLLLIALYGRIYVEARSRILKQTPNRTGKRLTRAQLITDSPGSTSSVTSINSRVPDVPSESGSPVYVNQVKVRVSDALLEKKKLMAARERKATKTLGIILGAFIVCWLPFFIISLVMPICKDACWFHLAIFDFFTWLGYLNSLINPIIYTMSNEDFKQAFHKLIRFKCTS
Sequence of Mu (MOP) receptor (P35372 whole entry): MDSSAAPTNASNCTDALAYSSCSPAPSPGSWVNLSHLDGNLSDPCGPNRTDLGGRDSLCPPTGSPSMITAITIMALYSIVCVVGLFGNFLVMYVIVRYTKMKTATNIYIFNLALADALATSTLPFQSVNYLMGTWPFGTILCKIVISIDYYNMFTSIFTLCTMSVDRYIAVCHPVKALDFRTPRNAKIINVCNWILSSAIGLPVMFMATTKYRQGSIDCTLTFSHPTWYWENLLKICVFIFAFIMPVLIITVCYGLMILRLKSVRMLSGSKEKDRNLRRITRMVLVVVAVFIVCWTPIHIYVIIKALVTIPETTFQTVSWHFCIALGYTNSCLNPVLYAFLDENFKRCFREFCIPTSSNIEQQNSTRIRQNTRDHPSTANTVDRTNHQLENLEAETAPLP
Sequence of cholinergic muscarinic receptor 3 (P20309 whole entry): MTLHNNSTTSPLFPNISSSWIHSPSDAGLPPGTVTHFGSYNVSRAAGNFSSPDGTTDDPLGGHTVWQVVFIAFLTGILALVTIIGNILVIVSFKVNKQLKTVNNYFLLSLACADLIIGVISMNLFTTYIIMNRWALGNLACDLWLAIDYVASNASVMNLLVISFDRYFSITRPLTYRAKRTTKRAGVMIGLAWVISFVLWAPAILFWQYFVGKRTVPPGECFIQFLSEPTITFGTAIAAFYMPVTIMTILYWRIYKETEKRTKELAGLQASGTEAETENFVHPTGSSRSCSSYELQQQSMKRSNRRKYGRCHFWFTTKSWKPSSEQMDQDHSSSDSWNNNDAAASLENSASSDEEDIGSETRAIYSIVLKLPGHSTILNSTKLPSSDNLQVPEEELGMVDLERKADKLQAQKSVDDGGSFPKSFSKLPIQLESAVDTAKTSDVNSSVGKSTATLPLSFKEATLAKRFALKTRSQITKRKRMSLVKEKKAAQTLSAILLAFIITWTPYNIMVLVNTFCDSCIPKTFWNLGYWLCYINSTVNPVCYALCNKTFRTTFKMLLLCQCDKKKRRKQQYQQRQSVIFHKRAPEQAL

| Compound | Receptor ORL1 (NOP): mode of action [1] | Receptor ORL1 (NOP): mode of action ([1]; listed as compound 1) | activity at cholinergic muscarinic receptor 3 [2] | activity at adrenergic receptor Alpha 2B [3] | activity at adrenergic receptor Alpha 2C [4] | activity at dopamine D4 receptor [5] | activity at cholinergic muscarinic receptor 4 [6] | Receptor Sigma: affinity ([7]; listed as compound 1) | Receptor Mu (MOP): mode of action [8] | activity at cholinergic muscarinic receptor 5 [9] | activity at serotonin receptor 1B [10] | Receptor Kappa (KOP): mode of action [11] | activity at serotonin receptor 1A [12] | activity at histamine H1 receptor [13] | activity at adrenergic receptor Alpha 1B [14] | activity at cholinergic muscarinic receptor 1 [15] | Receptor Sigma: affinity [7] |
| --- | --- | --- | --- | --- | --- | --- | --- | --- | --- | --- | --- | --- | --- | --- | --- | --- | --- |
| CCC(=O)NC1CC(C)N(CCc2ccccc2)CC1C (stereo not drawn) [Compound 1, 1-(2-phenylethyl)2,5-dimethyl-4-propionilaminopiperidine] | Antagonist | antagonist | antagonistic activity | antagonistic activity | antagonistic activity | antagonistic activity | antagonistic activity | activity | partial agonist | antagonistic activity | antagonistic activity | Antagonist | antagonistic activity | antagonistic activity | antagonistic activity | antagonistic activity |  |
| C=CCN1CC[C@]23c4c5ccc(O)c4O[C@H]2C(=O)CC[C@@]3(O)[C@H]1C5 [Naloxone] |  |  |  |  |  |  |  |  |  |  |  |  |  |  |  |  | Weak |
| O=C1CC[C@@]2(O)[C@H]3Cc4ccc(O)c5c4[C@@]2(CCN3CC2CC2)[C@H]1O5 [Naltrexone] |  |  |  |  |  |  |  |  |  |  |  |  |  |  |  |  | Weak |

From patent US20230310406A1 (priority 2020, published 2023)
